The results in this text go back to EP1996603B1, “LIPID A ANTAGONISTS WITH ANTI-SEPTIC SHOCK, ANTI-INFLAMMATORY, ANTI-ISCHEMIA AND ANALGESIC ACTIVITY” (Università Degli Studi Di Milano - Bicocca, priority 2006, dated 2007).

The structures appear in SMILES notation. Entries after “also recorded” stand apart in the source; their conditions may differ.

For one data set, the system named is TLR2. The experiment in a line: TNFα production after stimulation with Pam3Cys-SK4 (TLR2 selectivity). The format is cell-based, Mouse. Conditions: stimulation with Pam3Cys-SK4, specific for TLR2. The method, then: (§1) • Figure 1. Antagonistic activity of compounds Ia, Ic and Id on lipid A-stimulated cytokine production in BMDC, BMØ and D1 cells. TNFα production was measured in the supernatants 24 h later. From the right: lipid A (0.5µM), cells treated with lipid A alone; DMSO: cells incubated in the presence of complete medium plus DMSO; inhibitor 50 µM, cells treated only with monosaccharides Ia, Ic and Id; other columns, lipid A + compounds […] at increasing doses. The data represent means and standard deviations of triplicate wells. This is a representative of three independent experiments. *, p < 0.05; **, p < 0.01; ***, p< 0.001. • Figure 2. TLR-4 selectivity of monosaccharide Id. […] IL-1β was measured in the supernatants by ELISA. […] Lower panels, TNFα production measured by ELISA 24 h after stimulation with CpG (selective for TLR-9) or PAM3Cys-SK4 (selective for TLR-2) in the presence of compound Id. […] The cells were then analyzed by FACS for the presence of annexin V and propidium iodide (PI) double positive cells. […] NF-kB activation was evaluated in the nuclear extract 2 h later and expressed as optical density (OD) at 450 nm. […] Effect of different doses of compound Id on carrageenan induced edema in mice measured 4h after the exposure and expressed as difference between the paw volume of treated paw versus the contralateral paw. […]

The test system of another data set is TLR9. The experiment in a line: TNFα production after stimulation with CpG (TLR9 selectivity). The format is cell-based, Mouse. Particulars: stimulation through CpG, recognized by TLR9. Here is the method: as §1
Data set [1] concerns ischemia-induced EEG flattening. Nature of the data set: Cerebral ischemia by bilateral carotid occlusion, EEG spectral power. The format is in vivo, Mongolian gerbils (Meriones unguiculatus). Conditions: 10 mg/kg i.p. 30 min before bilateral carotid occlusion; starting from 1 hour after recirculation. The method, then: After implanting EEG electrodes, the gerbils were divided into different groups on the basis of the assigned treatment. Their electroencephalogram (EEG) was recorded for 1 h a day, for three days, to determine the basal total and relative spectral power. The signals were recorded and processed for fast Fourier transform spectral analysis by means of PC software (PowerLab, AD Instruments, Pty, Ltd, Australia). EEG recordings were also made for seven days after ischemia. After basal EEG recordings, each gerbil was again lightly anaesthetised and 10-min. ischemia was induced by bilateral common carotid arteries occlusion. The ischemia was verified qualitatively on paper by the complete flattening of the EEG. A group of animals (sham-operated) underwent the same surgical procedure except that the carotid arteries were not clamped. Compound Id was i.p. administered to the animals at the dose of 10 mg/kg 30 minutes before ischemia induction.

In the next data set the test system is DC and MΦ. The experiment in a line: Cytotoxicity: PI test and annexin V test by FACS. It counts as cell-based. Particulars: 10 to 100 µM, 48 h incubation, 24 h in Figure 3 legend. The method, then:
as §1

The next data set has as its system neuropathic mice. The experiment in a line: Neuropathic pain after sciatic nerve ligation (plantar test, Von Frey test). Conditions: i.p. 5 mg/kg once a day for one week starting the day after surgery. The format is in vivo, mice C57BL/6J. The method, then:
Male mice C57BL/6J were anesthetized with sodium pentobarbital (65 mg/kg, i.p.) and submitted to surgery to induce neuropathic pain. […] Sham animals (sciatic exposure without ligation) were used as controls. The animal pain response was monitored before surgery, on day 7 (24 h after the last administration). Compound (Id) was administered i.p. at 5 mg/kg once a day starting the day after the surgery. Heat hypersensitivity was tested according to the Hargreaves' procedure using the plantar test (Ugo Basile, Varese, Italy). Mechanical allodynia was measured using the Von Frey test.

For the molecule `CCCCCCCCCCCCCCO[C@H]1[C@@H](OC)O[C@H](C[N+](C)(C)C2CCCC2)[C@@H](O)[C@@H]1OCCCCCCCCCCCCCC` [Compound Id, methyl 6-deoxy-6-N,N',N"-dimethylcyclopentylammonium-2,3-di-O-tetradecyl-α-D-glucopyranoside], the TNFα production result in the data set with TLR2 and with TLR9 was “not inhibited” in each case. The “ischemia-induced EEG flattening” value in data set [1] is “able to significantly antagonize the ischemia-induced EEG flattening”. Besides, the “percent of dead cells” value with DC and MΦ is “does not induce death of MΦ and DC; also recorded: Neither DC nor MΦ showed an appreciable percent of dead cells”. For the same molecule, the mechanical allodynia result in the data set on neuropathic mice (Von Frey test) is “significant relief”. Further, the thermal hyperalgesia entry in the data set on neuropathic mice (plantar test) is “significant relief”.
